Test results: patent US20240383904A1, “HETEROCYCLIC COMPOUNDS” (Hoffmann-La Roche Inc., priority 2021, published 2024)

The compounds below were run against T1, MAGL (Homo sapiens, UniProt Q99685) (assay: 2-AG assay: MAGL inhibitory activity by hydrolysis of 2-arachidonoylglycerol to arachidonic acid, followed by mass spectrometry). Details: 15 min preincubation, 30 min reaction at RT, 8 μM 2-arachidonoylglycerol.
T1 sequence (Q99685 1-303): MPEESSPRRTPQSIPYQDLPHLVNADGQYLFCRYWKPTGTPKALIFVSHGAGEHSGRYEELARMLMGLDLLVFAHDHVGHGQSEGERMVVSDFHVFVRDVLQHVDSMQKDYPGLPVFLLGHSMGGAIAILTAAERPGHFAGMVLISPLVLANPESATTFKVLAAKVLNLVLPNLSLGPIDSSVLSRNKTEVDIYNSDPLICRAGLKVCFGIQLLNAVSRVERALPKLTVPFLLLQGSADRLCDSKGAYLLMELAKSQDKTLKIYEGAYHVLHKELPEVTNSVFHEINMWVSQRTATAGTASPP
Format: biochemical

| SMILES | IC50 |
| --- | --- |
| O=C1NC2(CO1)CN(C(=O)N1CC3(C1)CN(c1cncc(F)c1)C3)C2 [Example 318, 2-[6-(5-fluoro-3-pyridyl)-2,6-diazaspiro[3.4]heptane-2-carbonyl]-7-oxa-2,5-diazaspiro[3.4]octan-6-one] | 146 nM |
| O=C1CCC2(CN(C(=O)N3CC4(CC(Cc5nc(C(F)(F)F)cs5)C4)C3)C2)N1 [Example 319, 2-[6-[[4-(trifluoromethyl)thiazol-2-yl]methyl]-2-azaspiro[3.3]heptane-2-carbonyl]-2,5-diazaspiro[3.4]octan-6-one] | 12.4 nM |
| O=C1CCC2(CN(C(=O)N3CC4(CC(Cc5ccc6ncnn6c5)C4)C3)C2)N1 [Example 320, 2-[6-([1,2,4]triazolo[1,5-a]pyridin-6-ylmethyl)-2-azaspiro[3.3]heptane-2-carbonyl]-2,5-diazaspiro[3.4]octan-6-one] | 171 nM |
| O=C1CCC2(CN(C(=O)N3CC4(CC(Cc5ccc6[nH]ncc6n5)C4)C3)C2)N1 [Example 321, 2-[6-(1H-pyrazolo[4,3-b]pyridin-5-ylmethyl)-2-azaspiro[3.3]heptane-2-carbonyl]-2,5-diazaspiro[3.4]octan-6-one] | 88.2 nM |
| N=S(=O)(c1cc(F)cc(CC2CC3(C2)CN(C(=O)N2CC4(COCC(=O)N4)C2)C3)c1)C(F)(F)F (centres unmarked) [Example 322, 2-[6-[[3-fluoro-5-(trifluoromethylsulfoni-midoyl)phenyl]methyl]-2-azaspiro[3.3]heptane-2-carbonyl]-8-oxa-2,5-diazaspiro[3.5]nonan-6-one] | 4.32 nM |
| O=C1CCC2(CN(C(=O)N3CC4(CCC(Cc5nnc(C(F)(F)F)[nH]5)CC4)C3)C2)N1 [Example 323, 2-[7-[[5-(trifluoromethyl)-4H-1,2,4-triazol-3-yl]methyl]-2-azaspiro[3.5]nonane-2-carbonyl]-2,5-diazaspiro[3.4]octan-6-one] | 0.17 nM |
| Cn1ncc(C(F)(F)F)c1CN1CCC2(CC1)CN(C(=O)N1CC3(CCC(=O)N3)C1)C2 [Example 325, 2-[7-[[2-methyl-4-(trifluoromethyl)pyrazol-3-yl]methyl]-2,7-diazaspiro[3.5]nonane-2-carbonyl]-2,5-diazaspiro[3.4]octan-6-one] | 3.88 nM |
| Cc1cc(C(F)(F)F)nn1CC1CC2(C1)CN(C(=O)N1CC3(CCC(=O)N3)C1)C2 [Example 326, 2-[6-[[5-methyl-3-(trifluoromethyl)pyrazol-1-yl]methyl]-2-azaspiro[3.3]heptane-2-carbonyl]-2,5-diazaspiro[3.4]octan-6-one] | 6.53 nM |
| O=C1CCC2(CN(C(=O)N3CC4(CC(Cc5nccc(C(F)(F)F)n5)C4)C3)C2)N1 [Example 327, 2-[6-[[4-(trifluoromethyl)pyrimi-din-2-yl]methyl]-2-azaspiro[3.3]heptane-2-carbonyl]-2,5-diazaspiro[3.4]octan-6-one] | 7.57 nM |
| Cc1cc(C(F)(F)F)n(CC2CC3(C2)CN(C(=O)N2CC4(CCC(=O)N4)C2)C3)n1 [Example 328, 2-[6-[[3-methyl-5-(trifluoromethyl)pyrazol-1-yl]methyl]-2-azaspiro[3.3]heptane-2-carbonyl]-2,5-diazaspiro[3.4]octan-6-one] | 15.9 nM |
| O=C1CCC2(CN(C(=O)N3CC4(CC(Cc5cc(C(F)(F)F)c[nH]c5=O)C4)C3)C2)N1 [Example 329, 2-[6-[[2-keto-5-(trifluoromethyl)-1H-pyridin-3-yl]methyl]-2-azaspiro[3.3]heptane-2-carbonyl]-2,5-diazaspiro[3.4]octan-6-one] | 16.1 nM |
| O=C1CCC2(CN(C(=O)N3CC4(CC(Cn5cnc(C6(C(F)(F)F)CC6)n5)C4)C3)C2)N1 [Example 330, 2-[6-[[3-[1-(trifluoromethyl)cyclopro-pyl]-1,2,4-triazol-1-yl]methyl]-2-azaspiro[3.3]heptane-2-carbonyl]-2,5-diazaspiro[3.4]octan-6-one] | 24.6 nM |
| O=C1CCC2(CN(C(=O)N3CC4(CC(Cc5n[nH]c(C(F)(F)F)n5)C4)C3)C2)N1 [Example 333, 2-[6-[[5-(trifluoromethyl)-1H-1,2,4-triazol-3-yl]methyl]-2-azaspiro[3.3]heptane-2-carbonyl]-2,5-diazaspiro[3.4]octan-6-one] | 88.1 nM |
| N=S(=O)(c1ccc(OC2CC3(C2)CN(C(=O)N2CC4(CCC(=O)N4)C2)C3)cc1)C(F)(F)F (centres unmarked) [Example 335] | 101 nM |
| CP(C)(=O)c1ccc(CC2CC3(C2)CN(C(=O)N2CC4(CCC(=O)N4)C2)C3)c(F)c1 [Example 336, 2-[6-(4-dimethylphosphoryl-2-fluoro-benzyl)-2-azaspiro[3.3]heptane-2-carbonyl]-2,5-diazaspiro[3.4]octan-6-one] | 146 nM |
| Cn1nc(C(F)(F)F)cc1CN1CCC2(CC1)CN(C(=O)N1CC3(CCC(=O)N3)C1)C2 [Example 337, 2-[7-[[2-methyl-5-(trifluoromethyl)pyrazol-3-yl]methyl]-2,7-diazaspiro[3.5]nonane-2-carbonyl]-2,5-diazaspiro[3.4]octan-6-one] | 160 nM |
| O=C1CCC2(CN(C(=O)N3CC4(CCN(Cc5cc(C(F)(F)F)on5)CC4)C3)C2)N1 [Example 338, 2-[7-[[5-(trifluoromethyl)isoxazol-3-yl]methyl]-2,7-diazaspiro[3.5]nonane-2-carbonyl]-2,5-diazaspiro[3.4]octan-6-one] | 178 nM |
| CP(C)(=O)c1cc(F)cc(CC2CC3(C2)CN(C(=O)N2CC4(CCC(=O)N4)C2)C3)c1 [Example 339, 2-[6-(3-dimethylphosphoryl-5-fluoro-benzyl)-2-azaspiro[3.3]heptane-2-carbonyl]-2,5-diazaspiro[3.4]octan-6-one] | 215 nM |
| Cn1cc(OC2CC3(C2)CN(C(=O)N2CC4(CCC(=O)N4)C2)C3)cn1 [Example 344, 2-[6-(1-methylpyrazol-4-yl)oxy-2-azaspiro[3.3]heptane-2-carbonyl]-2,5-diazaspiro[3.4]octan-6-one] | 2450 nM |
| Cc1cc(C(F)F)n(CC2CC3(C2)CN(C(=O)N2CC4(CCC(=O)N4)C2)C3)n1 [Example 346, 2-[6-[[5-(difluoromethyl)-3-methyl-pyrazol-1-yl]methyl]-2-azaspiro[3.3]heptane-2-carbonyl]-2,5-diazaspiro[3.4]octan-6-one] | 29.1 nM |
| Cc1cc(C(F)F)nn1CC1CC2(C1)CN(C(=O)N1CC3(CCC(=O)N3)C1)C2 [Example 347, 2-[6-[[3-(difluoromethyl)-5-methyl-pyrazol-1-yl]methyl]-2-azaspiro[3.3]heptane-2-carbonyl]-2,5-diazaspiro[3.4]octan-6-one] | 8.19 nM |

The remaining lines, values ahead:

| IC50 | SMILES |
| --- | --- |
| 553 nM | O=C1CCC2(CN(C(=O)N3CC4(CN(Cc5cn[nH]c5C(F)(F)F)C4)C3)C2)N1 [Example 316, 2-[6-[[5-(trifluoromethyl)-1H-pyrazol-4-yl]methyl]-2,6-diazaspiro[3.3]heptane-2-carbonyl]-2,5-diazaspiro[3.4]octan-6-one] |
| 1040 nM | O=C1CCC2(CN(C(=O)N3CC4(CCN(Cc5ccc(C(F)(F)F)nn5)C4)C3)C2)N1 [Example 317, 2-[7-[[6-(trifluoromethyl)pyrida-zin-3-yl]methyl]-2,7-diazaspiro[3.4]octane-2-carbonyl]-2,5-diazaspiro[3.4]octan-6-one] |
| 3.35 nM | O=C1CCC2(CN(C(=O)N3CC4(CC(Cc5cn(C6CC6)nc5C(F)(F)F)C4)C3)C2)N1 [Example 324] |
| 45.2 nM | CC(C)(C)c1ncc(CN2CC3(C2)CN(C(=O)N2CC4(CCC(=O)N4)C2)C3)s1 [Example 331, 2-[6-[(2-tert-butylthiazol-5-yl)methyl]-2,6-diazaspiro[3.3]heptane-2-carbonyl]-2,5-diazaspiro[3.4]octan-6-one] |
| 52.7 nM | O=C1CCC2(CN(C(=O)N3CC4(CCN(Cc5cc(C(F)(F)F)sn5)CC4)C3)C2)N1 [Example 332, 2-[7-[[5-(trifluoromethyl)isothia-zol-3-yl]methyl]-2,7-diazaspiro[3.5]nonane-2-carbonyl]-2,5-diazaspiro[3.4]octan-6-one] |
| 88.2 nM | O=C1CCC2(CN(C(=O)N3CC4(CN(Cc5snnc5C5CCC5)C4)C3)C2)N1 [Example 334, 2-[6-[(4-cyclobutylthiadiazol-5-yl)methyl]-2,6-diazaspiro[3.3]heptane-2-carbonyl]-2,5-diazaspiro[3.4]octan-6-one] |
| 428 nM | O=C1CCC2(CN(C(=O)N3CC4(CN(Cc5nc(C6CC6)ns5)C4)C3)C2)N1 [Example 340, 2-[6-[(3-cyclopropyl-1,2,4-thiadiazol-5-yl)methyl]-2,6-diazaspiro[3.4]heptane-2-carbonyl]-2,5-diazaspiro[3.4]octan-6-one] |
| 730 nM | Cc1sc(CN2CC3(C2)CN(C(=O)N2CC4(CCC(=O)N4)C2)C3)nc1C(F)(F)F [Example 341, 2-[6-[[5-methyl-4-(trifluoromethyl)thiazol-2-yl]methyl]-2,6-diazaspiro[3.3]heptane-2-carbonyl]-2,5-diazaspiro[3.4]octan-6-one] |
| 1600 nM | O=C1CCC2(CN(C(=O)N3CC4(CN(Cc5nnc(C(F)(F)F)s5)C4)C3)C2)N1 [Example 342, 2-[6-[[5-(trifluoromethyl)-1,3,4-thiadiazol-2-yl]methyl]-2,6-diazaspiro[3.3]heptane-2-carbonyl]-2,5-diazaspiro[3.4]octan-6-one] |
| 1800 nM | Cc1nc(C(F)(F)F)c(CN2CC3(C2)CN(C(=O)N2CC4(CCC(=O)N4)C2)C3)s1 [Example 343, 2-[6-[[2-methyl-4-(trifluoromethyl)thiazol-5-yl]methyl]-2,6-diazaspiro[3.4]heptane-2-carbonyl]-2,5-diazaspiro[3.4]octan-6-one] |
| 3330 nM | O=C1CCC2(CN(C(=O)N3CC4(CN(Cc5snnc5C5CC5)C4)C3)C2)N1 [Example 345, 2-[6-[(4-cyclopropylthiadiazol-5-yl)methyl]-2,6-diazaspiro[3.3]heptane-2-carbonyl]-2,5-diazaspiro[3.4]octan-6-one] |
